# Tests used:
# [1] = tested on: Human umbilical vein endothelial cells (HUVEC); assay: Endothelial cell survival (CellTiter-Glo); format: cell-based; details: 500 μM compound
# Method: Methods: Human umbilical vein endothelial cells (HUVEC, Clonetics) were seeded at 10,000/well in a 96-well plate for 2 hours in EGM media (Clonetics). The cells were then serum-deprived for 2 hours in DMEM (Invitrogen) supplemented with 0.2% bovine serum albumin. Quadruplicate wells were then treated with either vehicle or 500 μM Compound in the presence or absence of either 500 pM recombinant human VEGF165 or 250 ng/mL recombinant human Angiopoietin-1 (Ang-1) (R&D Systems) for 72 hours in DMEM supplemented with 0.2% bovine serum albumin. Cells remaining after incubation were detected using the CellTiter-Glo™ System according to the manufacturers instructions (Promega) and measured using a Victor V plate reader (Perkin Elmer/Wallac).
# [2] = tested on: Tie-2; assay: Ligand-induced Tie-2 phosphorylation in endothelial cells (anti-phosphotyrosine western blot); format: cell-based, human; details: endothelial cells pretreated 30 minutes with 0.1 mM or 1 mM; vs vehicle; p<0.05
# Method: (§1) VEGFR2 and Tie-2 receptor phosphorylation is assayed by anti-phosphotyrosine western blotting following immunoprecipitation of the receptors from endothelial cells or receptor transfected 293 cells. Briefly, endothelial cells (HUVEC's) are plated on 100 mm dishes, stimulated with a dose range of either recombinant VEGF165 or recombinant Angiopoietin-1 (R&D Systems, resuspended in PBS containing 0.2% bovine serum albumin) for 5 or 7 minutes, respectively. […] Signal is detected using HRP labeled secondary antibodies and ECL solution (Amersham). […] Resulting films are scanned and quantitated using Quantity-One software (Bio-Rad) and results reported as the amount of phosphotyrosine signal over receptor signal (P-Tyr/Receptor).
# (§2) Transfection in HUVEC's is performed with the above-mentioned antisense oligos at a 200 nM final concentration using LIPOFECTIN™ (Invitrogen), a reagent for transfectin of endothelial cells and transfection of DNA or RNA into cell lines, in OPTIMEM™-I (Gibco), a modification of Eagles Minimum Essential Medium, buffered with HEPES and sodium bicarbonate (2.4 g/L) and supplemented with hypoxanthine, thymidine, sodium pyruvate, L-glutamine, trace elements, and growth factors, according to the manufacturers instructions. […] Uptake efficiency is monitored in every transfection using a fluorescently labeled oligonucleotide and determined to be >90% in every experiment.” […]
# [3] = target: T1, HPTPbeta (Homo sapiens, UniProt P23467); assay: Inhibition of recombinant HPTPbeta phosphatase activity (DiFMUP substrate); format: biochemical; details: assay as in Example 2
# T1 construct: GST (N, cleaved yes); His6 (C); made in house; host or cells: E. coli BL21-RIL
# T1 sequence (P23467 with tags, fused parts or gaps): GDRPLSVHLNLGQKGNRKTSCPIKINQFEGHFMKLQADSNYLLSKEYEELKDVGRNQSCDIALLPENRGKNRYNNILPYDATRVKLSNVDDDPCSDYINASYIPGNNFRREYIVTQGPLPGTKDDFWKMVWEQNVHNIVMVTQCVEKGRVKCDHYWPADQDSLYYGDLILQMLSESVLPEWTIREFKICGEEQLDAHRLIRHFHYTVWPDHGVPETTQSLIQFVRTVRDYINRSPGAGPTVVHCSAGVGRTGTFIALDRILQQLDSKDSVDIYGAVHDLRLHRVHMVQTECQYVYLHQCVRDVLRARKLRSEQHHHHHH
# Method: Methods: Expression and purification of recombinant HPTPbeta catalytic domain [SEQ ID NO: 16] is accomplished by subcloning the intracellular domain of HPTPbeta (cDNA clone starting at the codon for amino acid 1662 through the stop codon) into the pGEX4T1 vector (Pharmacia) and expressed as a GST-fusion protein in E. coli BL21-RIL cells (Stratagene). Induced cells are thawed on ice and resuspended in 20 mM Tris-HCl, pH=8.0, 1% Trition x-100, 2 mM DTT and EDTA-free protease inhibitor cocktail. 10 mg/ml lysozyme is added and cells are lysed by sonication. The cell debris is pelleted using the Beckman J2-MI at 17,000 rpm. The supernatant is added to prepared glutathione sepharose 4B resin batch method. After binding, the column is poured and packed with the resin/protein mixture and then washed. […]
# Measurements of recombinant phosphatase activity are performed using the substrate DiFMUP (6,8-difluoro-4-methylumbelliferyl phosphate) from Molecular Probes. […] Measurements of increased substrate fluorescence, indicative of phosphatase activity, are observed at an excitation wavelength of 355 nm and an emission wavelength of 460 nm using a Victor V plate reader (Wallac).
# Methods: The potency of a class of HPTPbeta inhibitors was optimized by iterative screening for inhibition of HPTPbeta activity measured as described in Example 2. […]
# [4] = tested on: panel of recombinant phosphatases; assay: Selectivity against a panel of recombinant phosphatases; format: biochemical; details: all panel phosphatases except the closely related HPTPeta
# Method: FIG. 10. Compound 1 ((R)-[1-Methylcarbamoyl-2-(4-sulfoamino-phenyl)-ethyl]-carbamic acid tert-butyl ester) is a selective HPTPbeta inhibitor. Compound 1 was assayed for inhibition of a panel of recombinant phosphatases essentially as described in Example 2 for HPTPbeta. This compound was at least 10 fold selective for HPTPbeta over the other phosphatases tested except for the closely related HPTPeta.
# Methods: The potency of a class of HPTPbeta inhibitors was optimized by iterative screening for inhibition of HPTPbeta activity measured as described in Example 2. […] To determine selectivity, compound 1 was tested against a panel of several other recombinant phosphatases (FIG. 10). VEGFR2 and Tie-2 receptor activation was assayed as mentioned in example 4. However, to assess the effect of the HPTPbeta inhibitor, the cells were pretreated for 30 minutes prior to stimulation with either 0.1 mM or 1 mM Compound 1 in Opti-MEM media (Invitrogen) at 37° C./5% CO2. Results: A potent and selective HPTPbeta inhibitor (Compound 1) was developed (see Example 11) as an agent to enhance the activation of VEGFR2 and Tie2 (FIG. 10). Compound was at least 10 fold selective for HPTPbeta versus the any of the other phosphatases except for the closely related HPTPeta. […] Clearly, these assays could be used to optimize the potency and selectivity and to test the efficacy of other HPTPbeta inhibitors.
# [5] = tested on: VEGFR2; assay: Ligand-induced VEGFR2 phosphorylation in endothelial cells (anti-phosphotyrosine western blot); format: cell-based, human; details: endothelial cells pretreated 30 minutes with 0.1 mM or 1 mM; vs vehicle; p<0.05
# Method: as §1, §2
# [6] = tested on: Rat thoracic aortic rings; assay: Rat aortic ring explant angiogenesis assay; details: 100 μM and 300 μM; p<0.05 vs control
# Method: Methods: The isolated rat aortic ring model of angiogenesis is performed using the thoracic aorta from 150-175 gram, male Sprague-Dawley rats (Charles River). The excised thoracic aorta is placed in sterile saline solution and transferred to endothelial basal media (EBM, Clonetics) containing 1% antibiotics/antimycotic (Gibco BRL). Periadventitial fibroadipose tissue and any visible blood clots were removed. Aortas are cross-sectioned at ˜1 mm intervals and the resulting tissues placed in 100 μl of Dulbecco's Modified Eagle Medium (DMEM) containing 2% FBS, in the presence or absence of adenovirus for green fluorescent protein, empty virus or HPTPbeta (all at 1.0×10^11 virus particles/ml), as described. Rings are incubated for 30 minutes at 37° C. in a humidified incubator under a constant 5% CO2 atmosphere. Following adenoviral infection, aortic rings were washed with EBM and placed in a 24-well tissue culture plate. Aortic rings are overlaid with 450 μl of collagen solution consisting of 8 volumes of 3 mg/ml rat tail collagen (Sigma) in 0.1% acetic acid, 1 volume of 10× M-199 supplemented with 100 mg/ml L-glutamine, and 1 volume of 10× collagen buffer (0.0SN NaOH, 200 mM HEPES, 260 mM NaHCO3). […] Images (TIFF) are taken using a SPOT camera connected to a Nikon inverted microscope and analyzed (vessel extent and area) using automated image analysis software. […]
# [7] = tested on: HEK293H cells; assay: In-cell phosphatase activity (DiFMUP) in HPTPbeta-transfected HEK293H cells; format: cell-based, human; details: 500 μM, 15 minutes pre-incubation
# Method: For phosphatase activity in human embryonic kidney cells, HEK293H (Gibco) are grown in suspension in 293SFM media (Gibco) and transfected on 100 mm dishes using LIPOFECTAMINE™ 2000 (Invitrogen), a proprietary formulation for the transfection of nucleic acids (DNA and RNA) into eukaryotic cells. After 24 hours cells are resuspended transferred back to shaker flasks for an additional 24 hours. Phosphatase activity is measured using DiFMUP in 96 well plates as above with 100,000 cells/well. For inhibition of tyrosine phosphatases, the cells are pre-incubated with Bis-maloalto-organovanadium (BMOV) for 15 minutes prior to the addition of DIFMUP. HPTPbeta protein expression is confirmed after each experiment in parallel plates by western blotting.
# [8] = tested on: HUVEC; assay: In-cell phosphatase activity (DiFMUP) in HPTPbeta adenovirus infected HUVECs; format: cell-based, human; details: 500 μM
# Method: In cell phosphatase assays are accomplished by infecting Human Umbilical Vein Endothelial Cells with HPTPbeta, GFP, or Empty adenovirus in 100 mm dishes for 24 hours. Infected cells were trypsinized and re-plated at 5,000 cells/well in a 96 well plate and allowed to attach for 2 hours in complete growth medium (EGM). Complete medium was replaced with Hanks Buffered Saline (HBSS, Gibco) and substrate fluorescence are measured 15 minutes after the addition of 100 uM DiFMUP substrate (Molecular Probes) using a Victor V plate reader as mentioned in Example 2.
SMILES,"cell survival with VEGF165 stimulation ([1]; 500 pM VEGF165, 72 hours, vs vehicle)","cell survival with Ang-1 stimulation ([1]; 250 ng/mL Ang-1, 72 hours, vs vehicle)","basal cell survival ([1]; no ligand, vs untreated controls)",ligand stimulated tyrosine phosphorylation of Tie-2 [2],potency of inhibition of HPTPbeta activity [3],selectivity for HPTPbeta over the other phosphatases tested [4],ligand stimulated tyrosine phosphorylation of VEGFR2 [5],vessel area [6],vessel extent [6],phosphatase activity in HEK293H cells [7],phosphatase activity in HUVEC's [8]
"CNC(=O)C(Cc1ccc(NS(=O)(=O)O)cc1)NC(=O)OC(C)(C)C (stereo in doubt) [Compound 1, (R)-[1-Methylcarbamoyl-2-(4-sulfoamino-phenyl)-ethyl]-carbamic acid tert-butyl ester]",increased cell survival,increased cell survival,increased basal levels of survival,increased,nanomolar,at least 10 fold,increased,significant increases,significant increases,,
"Cc1occc(=O)c1[O-].Cc1occc(=O)c1[O-].[O]=[V+2] [BMOV, Bis-maloalto-organovanadium]",,,,,,,,,,inhibited,inhibited

# — US7632862B2, “Pharmaceutical compositions that modulate HPTPbeta activity” (Procter & Gamble Company, priority 2002, dated 2009)
